The target in one test is hPAD4 enzyme (Homo sapiens (Human), UniProt Q9UM07). Briefly: PAD4 RapidFire Mass Spectrometry (RFMS) activity assay, hPAD4. The test is classed as biochemical.
The next test concerns the target mPAD4 (Mus musculus (Mouse), UniProt Q9Z183). The test can be described thus: PAD4 RapidFire Mass Spectrometry (RFMS) activity assay, mPAD4. In kind it is biochemical.
Setting [1] is: 100 nM hPAD4, 50 μM substrate peptide, 1 mM CaCl2, 65 mins at 37° C., read-out: hPAD4 RFMS IC50.
Where [2] appears, read: pIC50=−log(IC50), read-out: hPAD4 RFMS pIC50 (converted).
[3] abbreviates: pIC50=−log(IC50), read-out: mPAD4 RFMS pIC50 (converted).

The structures appear in SMILES notation. Where two headings read alike, the source gives them in different places.

Sequence of hPAD4 enzyme (Q9UM07 whole entry): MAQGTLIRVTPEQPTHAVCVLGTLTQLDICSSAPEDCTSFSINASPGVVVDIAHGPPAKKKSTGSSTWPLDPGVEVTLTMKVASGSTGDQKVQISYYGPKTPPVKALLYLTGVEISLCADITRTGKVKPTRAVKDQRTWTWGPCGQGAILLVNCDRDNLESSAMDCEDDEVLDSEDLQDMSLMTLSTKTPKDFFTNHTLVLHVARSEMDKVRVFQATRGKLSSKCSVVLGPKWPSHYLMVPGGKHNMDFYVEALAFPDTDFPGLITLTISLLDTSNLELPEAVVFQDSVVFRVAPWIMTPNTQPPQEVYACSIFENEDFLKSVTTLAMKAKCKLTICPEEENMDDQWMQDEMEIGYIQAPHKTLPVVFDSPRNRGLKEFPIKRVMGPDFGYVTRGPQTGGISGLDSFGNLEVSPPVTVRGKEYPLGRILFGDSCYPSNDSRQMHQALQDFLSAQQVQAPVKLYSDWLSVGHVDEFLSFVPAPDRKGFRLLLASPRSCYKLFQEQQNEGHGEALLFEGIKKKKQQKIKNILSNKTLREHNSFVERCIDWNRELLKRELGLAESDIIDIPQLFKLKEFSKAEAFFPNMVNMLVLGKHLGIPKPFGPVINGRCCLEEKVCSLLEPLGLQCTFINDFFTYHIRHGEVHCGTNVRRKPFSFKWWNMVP
Sequence of mPAD4 (Q9Z183 whole entry): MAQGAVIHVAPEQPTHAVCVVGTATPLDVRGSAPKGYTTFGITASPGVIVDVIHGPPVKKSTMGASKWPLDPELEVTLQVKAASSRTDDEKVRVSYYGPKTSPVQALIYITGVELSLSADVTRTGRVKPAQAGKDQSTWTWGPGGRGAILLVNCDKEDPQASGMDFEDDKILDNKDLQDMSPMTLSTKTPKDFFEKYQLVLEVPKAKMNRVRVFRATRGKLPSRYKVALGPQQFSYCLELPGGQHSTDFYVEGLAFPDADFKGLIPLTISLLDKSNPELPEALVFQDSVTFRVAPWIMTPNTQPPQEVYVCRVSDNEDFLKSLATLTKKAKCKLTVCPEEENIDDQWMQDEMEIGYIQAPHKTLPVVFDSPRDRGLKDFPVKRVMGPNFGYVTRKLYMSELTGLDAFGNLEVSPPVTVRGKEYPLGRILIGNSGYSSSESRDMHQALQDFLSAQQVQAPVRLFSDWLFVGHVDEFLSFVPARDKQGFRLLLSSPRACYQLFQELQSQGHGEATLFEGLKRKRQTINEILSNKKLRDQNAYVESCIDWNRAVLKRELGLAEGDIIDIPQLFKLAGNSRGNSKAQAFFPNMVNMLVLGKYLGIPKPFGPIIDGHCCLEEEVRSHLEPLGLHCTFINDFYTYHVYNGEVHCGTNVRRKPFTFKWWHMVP

Take `CN(C)C/C=C/C(=O)N[C@H]1CCN(C(=O)c2ccc3c(c2)nc(-c2cc4cccnc4n2CC2CC2)n3C)C[C@H]1N` (racemic) [Compound I-3, Cis-rac-(2E)-N-[(3R,4S)-3-amino-1-{2-[1-(cyclopropylmethyl)-1H-pyrrolo[2,3-b]pyridin-2-yl]-1-methyl-1H-1,3-benzodiazole-5-carbonyl}piperidin-4-yl]-4-(dimethylamino)but-2-enamide]: the IC50 was above 10 µM on hPAD4 enzyme (setting [1]), 100 to 100000 µM on hPAD4 enzyme (setting [2]), 10 to 100 µM on mPAD4 (setting [3]) and above 10 µM at mPAD4 (read-out: mPAD4 RFMS IC50).

As to `CN(C)C/C=C/C(=O)N[C@@H]1C[C@H](N)CN(C(=O)c2ccc3c(c2)nc(-c2cc4cccnc4n2CC2CC2)n3C)C1` (racemic) [Compound I-10, Cis-rac-(2E)-N-[(3R,5S)-5-amino-1-{2-[1-(cyclopropylmethyl)-1H-pyrrolo[2,3-b]pyridin-2-yl]-1-methyl-1H-1,3-benzodiazole-5-carbonyl}piperidin-3-yl]-4-(dimethylamino)but-2-enamide], the IC50 is above 10 µM on hPAD4 enzyme (setting [1]), 10 to 100 µM on hPAD4 enzyme (setting [2]), 10 to 100 µM on mPAD4 (setting [3]) and above 10 µM at mPAD4 (read-out: mPAD4 RFMS IC50).

In the case of `C=CC(=O)O[C@@H]1CNC[C@@H]1NC(=O)c1ccc2c(c1)nc(-c1cc3cccnc3n1CC1CC1)n2C` (racemic) [Compound I-11, Rac-(3R,4S)-4-{2-[1-(cyclopropylmethyl)-1H-pyrrolo[2,3-b]pyridin-2-yl]-1-methyl-1H-1,3-benzodiazole-5-amido}pyrrolidin-3-yl prop-2-enoate], the IC50 at hPAD4 enzyme (setting [1]) was above 10 µM; on hPAD4 enzyme (setting [2]), 10 to 100 µM.

As for `C=CC(=O)N(C)[C@@H]1C[C@@H]2CN(C(=O)c3cc(OC)c4c(c3)nc(-c3cc5cccnc5n3CC3CC3)n4C)[C@H]1[C@@H]2N` (single isomer, unassigned) [Compound I-16], the IC50 on hPAD4 enzyme (setting [1]) is above 10 µM; at hPAD4 enzyme (setting [2]), 100 to 100000 µM.

Regarding `C=CC(=O)N(C)[C@H]1C[C@@H]2CN(C(=O)c3cc(OC)c4c(c3)nc(-c3cc5cccnc5n3CC3CC3)n4C)[C@H]1[C@@H]2N` (single isomer, unassigned) [Compound I-17], the IC50 at hPAD4 enzyme (setting [1]) was above 10 µM; at hPAD4 enzyme (setting [2]) it was 100 to 100000 µM.

On to `C/C=C/C(=O)N[C@@H]1CNC[C@H]1NC(=O)c1ccc2c(c1)nc(-c1cc3cccnc3n1CC1CC1)n2C` [Compound I-6], for which the IC50 at hPAD4 enzyme (setting [1]) is above 10 µM; at hPAD4 enzyme (setting [2]), 100 to 100000 µM.

Turning to `CN(C)C/C=C/C(=O)NCCN(CCc1cnc[nH]1)C(=O)c1ccc2c(c1)nc(-c1cc3cccnc3n1CC1CC1)n2C` [Compound I-7, (2E)-N-[2-(1-{2-[1-(Cyclopropylmethyl)-1H-pyrrolo[2,3-b]pyridin-2-yl]-1-methyl-1H-1,3-benzodiazol-5-yl}-N-[2-(1H-imidazol-5-yl)ethyl]formamido)ethyl]-4-(dimethylamino)but-2-enamide], the figures for the IC50 at hPAD4 enzyme (setting [1]) and on hPAD4 enzyme (setting [2]) were above 10 µM and 100 to 100000 µM, respectively.

With `CN(C)C/C=C/C(=O)N[C@@H]1CCCN(C(=O)c2ccc3c(c2)nc(-c2cc4cccnc4n2CC2CC2)n3C)C1` [Compound I-12, (2E)-N-[(3R)-1-{2-[1-(cyclopropylmethyl)-1H-pyrrolo[2,3-b]pyridin-2-yl]-1-methyl-1H-1,3-benzodiazole-5-carbonyl}piperidin-3-yl]-4-(dimethylamino)but-2-enamide], the values for the IC50 on hPAD4 enzyme (setting [1]) and on hPAD4 enzyme (setting [2]) were above 10 µM and 10 to 100 µM, respectively.

Turning to `C=CC(=O)N[C@@H]1CCCN(C(=O)c2ccc3c(c2)nc(-c2cc4cccnc4n2CC2CC2)n3C)C1` [Compound I-13, N-[(3R)-1-{2-[1-(cyclopropylmethyl)-1H-pyrrolo[2,3-b]pyridin-2-yl]-1-methyl-1H-1,3-benzodiazole-5-carbonyl}piperidin-3-yl]prop-2-enamide], the IC50 at hPAD4 enzyme (setting [1]) is above 10 µM; on hPAD4 enzyme (setting [2]) it was 100 to 100000 µM.

The values above are taken from patent publication US10703741B2, “Covalent inhibitors of PAD4” (Padlock Therapeutics, Inc., priority 2016, dated 2020).
